US20160237059A1, “HETEROCYCLIC SUBSTITUTED TRIFLUOROMETHYL PYRIMIDINONES AND THEIR USE” (BAYER PHARMA AKTIENGESELLSCHAFT, priority 2013, published 2016)

Tests used:
human CCR2 = biological target: T1, human CCR2 (Homo sapiens, UniProt P41597); assay: Functional Ca2+ release test (B-1); format: cell-based; details: Chem-1 cell line transfected with human CCR2; 50% inhibition of the MCP-1 effect, MCP-1 at EC50 (about 5 nM); in some cases means of several determinations
T1 construct: host or cells: Chem-1 cell line
T1 sequence (P41597 1-360 isoform P41597-2): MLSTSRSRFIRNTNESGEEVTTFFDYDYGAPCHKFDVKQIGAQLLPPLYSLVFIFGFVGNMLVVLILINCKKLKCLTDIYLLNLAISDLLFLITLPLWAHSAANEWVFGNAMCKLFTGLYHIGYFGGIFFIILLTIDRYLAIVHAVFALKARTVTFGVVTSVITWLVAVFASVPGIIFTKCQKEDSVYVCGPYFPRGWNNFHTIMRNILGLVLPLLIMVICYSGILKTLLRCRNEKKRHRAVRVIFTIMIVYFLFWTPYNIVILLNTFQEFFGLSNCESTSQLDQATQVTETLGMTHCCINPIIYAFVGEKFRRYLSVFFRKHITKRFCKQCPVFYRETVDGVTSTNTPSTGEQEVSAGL
Method: The antagonistic action of test substances on CCR2 was determined in a functional Ca^2+ release test. Binding of CCL2/MCP-1 to CCR2 leads to a change in the conformation of the receptor resulting in Gi/Gq protein activation and intracellular signal cascade. This involves, inter alia, an intracellular Ca^2+ release. The test cell used was a Chem-1 cell line transfected with human CCR2 (ChemiSCREEN™ CCR2B Calcium-Optimized FLIPR Cell Line, Merck Millipore).
(§1) The test substances were dissolved in dimethyl sulphoxide (DMSO) at a concentration of 10 mM and serially diluted with DMSO in steps of 1:3.16 for a 10-point dose/activity analysis. According to the desired test concentrations, the substances were pre-diluted in Tyrode with 2 mM CaCl2 and 0.05% BSA.
The cells, cultivated in DMEM high glucose [supplemented with 10% FCS, 1 mM pyruvate, 15 mM HEPES, 500 μg/ml geniticin and non-essential amino acids (NEAA)], were sown at 5000 cells/25 μl in 384 well, μCLEAR/black cell culture plates from Greiner (#781092) and incubated at 37° C. for 24 h. The sowing medium consisted of DMEM high glucose [supplemented with 5% FCS, 1 mM pyruvate, 15 mM HEPES, 50 U/ml penicillin, 50 μg/ml streptomycin and non-essential amino acids (NEAA)]. The medium was then removed and the cells were charged for 60 min at 37° C. with Fluo-4 dye [25 μl Tyrode with 3 μM Fluo-4 AM (1 mM DMSO stock solution), 0.4 mg/ml Brilliant Black, 2.5 mM probenicid, 0.03% Pluronic F-127]. The cells were pre-incubated for 10 min with 10 μl of the test substances diluted in buffer, and 20 μl of agonist solution (MCP-1 in Tyrode with 0.05% BSA) were then added. MCP-1 was employed at the concentration which corresponds to the EC50 which had been determined in a preliminary test (usually about 5 nM). Ca^2+ release was monitored over a period of 120 s in 1 s increments in a proprietary fluorescence imaging reader. The molar concentration of the test substance which caused 50% inhibition of the MCP-1 effect (IC50) was determined using a 4-parameter logistic function (Hill function).

murine CCR2 = biological target: T2, murine CCR2 (Mus musculus, UniProt P51683); assay: Functional β-arrestin recruiting test with murine MCP-1 (B-2b); format: cell-based; details: U2OS β-arrestin cell line transfected with murine CCR2; agonist murine MCP-1; in some cases means of several determinations
T2 construct: host or cells: U2OS β-arrestin cell line
T2 sequence (P51683 whole entry): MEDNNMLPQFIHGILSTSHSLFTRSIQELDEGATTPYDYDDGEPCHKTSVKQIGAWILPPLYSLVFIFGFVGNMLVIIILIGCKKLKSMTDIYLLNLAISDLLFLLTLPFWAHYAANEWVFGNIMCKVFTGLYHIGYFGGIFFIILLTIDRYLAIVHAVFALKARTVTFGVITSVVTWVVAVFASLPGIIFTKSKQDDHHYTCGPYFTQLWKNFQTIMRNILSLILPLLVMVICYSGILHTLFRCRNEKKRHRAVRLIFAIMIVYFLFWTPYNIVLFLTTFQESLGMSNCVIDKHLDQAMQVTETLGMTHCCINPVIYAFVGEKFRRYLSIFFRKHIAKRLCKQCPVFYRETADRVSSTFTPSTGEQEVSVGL
Method: The antagonistic action of test substances on CCR2 was determined in a β-arrestin test. The PathHunter β-arrestin GPCR test system (DiscoveRx Corporation, Ltd.) is a cell-based functional method for detecting binding of β-arrestin to an activated receptor. The molecular basis is a […] complementation measured by the enzymatic conversion of a chemiluminescent substrate. The test cell used was a U2OS β-arrestin cell line transfected with murine CCR2 (93-0543C3, DiscoveRx Corporation, Ltd.).
as §1
The cells, cultivated in MEM Eagle (supplemented with 10% FCS, 50 U/ml of penicillin, 50 μg/ml of streptomycin, 250 μg/ml of hygromycin and 500 μg/ml of geniticin), were sown at 2000 cells/25 μl in 384 well, μCLEAR/black cell culture plates from Greiner (#781092) and incubated at 37° C. for 24 h. The sowing medium consisted of Opti-MEM (supplemented with 1% FCS, 50 U/ml of penicillin and 50 μg/ml of streptomycin). The cells were pre-incubated for 10 min with 10 μl of the test substances diluted in buffer, and 10 μl of agonist solution [human MCP-1 (PeproTech, #300-04) in Tyrode with 0.05% BSA) were then added. The human MCP-1 was employed at the concentration which corresponds to the EC50 which had been determined in a preliminary test (usually about 3 nM). After 90 min of incubation at 37° C., the solution was removed, and recruitment of β-arrestin to CCR2 was detected with the aid of the PathHunter detection reagent (93-001, DiscoveRx Corporation, Ltd.) according to the instructions of the manufacturer. Luminescence was measured after an incubation time of 60 min using a proprietary luminescence imaging measuring instrument. The molar concentration of the test substance which caused 50% inhibition of the MCP-1 effect (IC50) was determined using a 4-parameter logistic function (Hill function).
The test was carried out in a manner identical to that described above under B-2a, but using murine MCP-1 (PeproTech, #250-10) as agonist.

| SMILES | IC50 (human CCR2) [nM] | IC50 (murine CCR2) [nM] |
| --- | --- | --- |
| Nc1ccnc(-c2nc(C(F)(F)F)c(Oc3ccc(Cl)c(Cl)c3)c(=O)[nH]2)c1 [Example 128, 2-(4-aminopyridin-2-yl)-5-(3,4-dichlorophenoxy)-6-(trifluoromethyl)pyrimidin-4(3H)-one] | 3.2 | 360 |
| O=c1[nH]c(-c2ccnnc2)nc(C(F)(F)F)c1Oc1ccc(Cl)c(C(F)(F)F)c1 [Example 129, 5-[4-chloro-3-(trifluoromethyl)phenoxy]-2-(pyridazin-4-yl)-6-(trifluoromethyl)pyrimidin-4(3H)-one] | 222 | 2710 |
| O=c1[nH]c(-c2ccncc2Cl)nc(C(F)(F)F)c1Oc1ccc(Cl)c(C(F)(F)F)c1 [Example 131, 2-(3-chloropyridin-4-yl)-5-[4-chloro-3-(trifluoromethyl)phenoxy]-6-(trifluoromethyl)pyrimidin-4(3H)-one] | 2.8 | 158 |
| O=c1[nH]c(-c2cnccn2)nc(C(F)(F)F)c1Oc1ccc(Cl)c(C(F)(F)F)c1 [Example 132, 5-[4-chloro-3-(trifluoromethyl)phenoxy]-2-(pyrazin-2-yl)-6-(trifluoromethyl)pyrimidin-4(3H)-one] | 3.8 | 259 |
| CN(C)c1ccc(-c2nc(C(F)(F)F)c(Oc3ccc(Cl)c(Cl)c3)c(=O)[nH]2)nc1 [Example 133, 5-(3,4-dichlorophenoxy)-2-[5-(dimethylamino)pyridin-2-yl]-6-(trifluoromethyl)pyrimidin-4(3H)-one] | 0.8 | 21700 |
| CN(C)c1ccc(-c2nc(C(F)(F)F)c(Oc3ccc(Cl)c(C(F)(F)F)c3)c(=O)[nH]2)nc1 [Example 134, 5-[4-chloro-3-(trifluoromethyl)phenoxy]-2-[5-(dimethylamino)pyridin-2-yl]-6-(trifluoromethyl)pyrimidin-4(3H)-one] | 2.1 | 51 |
| CN(C)c1cccc(-c2nc(C(F)(F)F)c(Oc3ccc(Cl)c(C(F)(F)F)c3)c(=O)[nH]2)n1 [Example 135, 5-[4-chloro-3-(trifluoromethyl)phenoxy]-2-[6-(dimethylamino)pyridin-2-yl]-6-(trifluoromethyl)pyrimidin-4(3H)-one] | 14 | 1570 |
| Cn1nc(-c2nc(C(F)(F)F)c(Oc3ccc(Cl)c(Cl)c3)c(=O)[nH]2)c2ccccc21 [Example 136, 5-(3,4-dichlorophenoxy)-2-(1-methyl-1H-indazol-3-yl)-6-(trifluoromethyl)pyrimidin-4(3H)-one] | 39 | 1220 |
| Cn1nc(-c2nc(C(F)(F)F)c(Oc3ccc(Cl)c(C(F)(F)F)c3)c(=O)[nH]2)c2ccccc21 [Example 137, 5-[4-chloro-3-(trifluoromethyl)phenoxy]-2-(1-methyl-1H-indazol-3-yl)-6-(trifluoromethyl)pyrimidin-4(3H)-one] | 16 | 334 |
| COc1cccnc1-c1nc(C(F)(F)F)c(Oc2ccc(Cl)c(OC(F)(F)F)c2)c(=O)[nH]1 [Example 138] | 1.4 | 412 |
| O=c1[nH]c(-c2n[nH]c3ccccc23)nc(C(F)(F)F)c1Oc1ccc(Cl)c(Cl)c1 [Example 139, 5-(3,4-Dichlorophenoxy)-2-(1H-indazol-3-yl)-6-(trifluoromethyl)pyrimidin-4(3H)-one] | 0.7 | 229 |
| O=c1[nH]c(-c2n[nH]c3ccccc23)nc(C(F)(F)F)c1Oc1ccc(Cl)c(C(F)(F)F)c1 [Example 140, 5-[4-chloro-3-(trifluoromethyl)phenoxy]-2-(1H-indazol-3-yl)-6-(trifluoromethyl)pyrimidin-4(3H)-one] | 0.8 | 75 |
| Cn1nc(-c2nc(C(F)(F)F)c(Oc3ccc(Cl)c(Cl)c3)c(=O)[nH]2)c2c(Cl)cccc21 [Example 141, 2-(4-chloro-1-methyl-1H-indazol-3-yl)-5-(3,4-dichlorophenoxy)-6-(trifluoromethyl)pyrimidin-4(3H)-one] | 5.1 | 274 |
| Cn1nc(-c2nc(C(F)(F)F)c(Oc3ccc(Cl)c(C(F)(F)F)c3)c(=O)[nH]2)c2c(Cl)cccc21 [Example 142, 2-(4-chloro-1-methyl-1H-indazol-3-yl)-5-[4-chloro-3-(trifluoromethyl)phenoxy]-6-(trifluoromethyl)pyrimidin-4(3H)-one] | 3.3 | 246 |
| COc1cncnc1-c1nc(C(F)(F)F)c(Oc2ccc(Cl)c(Cl)c2)c(=O)[nH]1 [Example 143, 5-(3,4-dichlorophenoxy)-5′-methoxy-6-(trifluoromethyl)-2,4′-bipyrimidin-4(3H)-one] | 1.1 | 86 |
| COc1cccc(-c2nc(C(F)(F)F)c(Oc3ccc(Cl)c(Cl)c3)c(=O)[nH]2)n1 [Example 144, 5-(3,4-dichlorophenoxy)-2-(6-methoxypyridin-2-yl)-6-(trifluoromethyl)pyrimidin-4(3H)-one] | 17 | 759 |
| CC(C)Oc1ccnc(-c2nc(C(F)(F)F)c(Oc3ccc(Cl)c(Cl)c3)c(=O)[nH]2)c1 [Example 145, 5-(3,4-dichlorophenoxy)-2-(4-isopropoxypyridin-2-yl)-6-(trifluoromethyl)pyrimidin-4(3H)-one] | 322 | 2810 |
| CC(C)(C)Oc1cccc(-c2nc(C(F)(F)F)c(Oc3ccc(Cl)c(Cl)c3)c(=O)[nH]2)n1 [Example 146, 2-(6-tent-butoxypyridin-2-yl)-5-(3,4-dichlorophenoxy)-6-(trifluoromethyl)pyrimidin-4(3H)-one] | 404 | 3500 |
| COc1ccnc(-c2nc(C(F)(F)F)c(Oc3ccc(Cl)c(Cl)c3)c(=O)[nH]2)c1 [Example 147, 5-(3,4-dichlorophenoxy)-2-(4-methoxypyridin-2-yl)-6-(trifluoromethyl)pyrimidin-4(3H)-one] | 121 | 373 |
| COc1ccc(-c2nc(C(F)(F)F)c(Oc3ccc(Cl)c(Cl)c3)c(=O)[nH]2)nc1 [Example 148, 5-(3,4-dichlorophenoxy)-2-(5-methoxypyridin-2-yl)-6-(trifluoromethyl)pyrimidin-4(3H)-one] | 42 | 454 |
| COc1cccc(-c2nc(C(F)(F)F)c(Oc3ccc(Cl)c(C(F)(F)F)c3)c(=O)[nH]2)n1 [Example 149, 5-[4-chloro-3-(trifluoromethyl)phenoxy]-2-(6-methoxypyridin-2-yl)-6-(trifluoromethyl)pyrimidin-4(3H)-one] | 0.7 | 526 |
